The target of experiment [1] is T1, A1 receptor (Mesocricetus auratus, UniProt A0A1U8BVR4).
T1 construct: endogenous in cells; host or cells: DDT1 (DDT1 MF-2) hamster vas deferens smooth muscle cells
T1 sequence (A0A1U8BVR4 1-326): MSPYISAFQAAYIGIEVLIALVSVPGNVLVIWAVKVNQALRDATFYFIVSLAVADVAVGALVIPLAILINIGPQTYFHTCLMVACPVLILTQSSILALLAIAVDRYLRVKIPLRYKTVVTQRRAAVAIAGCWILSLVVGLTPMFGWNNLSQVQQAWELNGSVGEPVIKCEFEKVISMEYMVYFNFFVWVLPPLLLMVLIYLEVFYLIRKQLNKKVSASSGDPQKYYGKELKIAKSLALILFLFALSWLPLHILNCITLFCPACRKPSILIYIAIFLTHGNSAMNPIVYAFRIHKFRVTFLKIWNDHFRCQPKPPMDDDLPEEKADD
Nature of the experiment: Competitive binding assay, DDT1 cell membranes, [3H]CCPA. The following applies: [3H]CCPA 2 nM. Set-up: species or system hamster. As for the experimental part:
Cells were subcultured twice weekly by dispersion in Hank's Balanced Salt Solution (HBSS) without the divalent cations and containing 1 mM EDTA. The cells were then seeded in growth medium at a density of 1.2×10^5 cells per plate and experiments were performed 4 days later at approximately one day preconfluence.
(§1) Attached cells were washed twice with HBSS (2×10 ml), scraped free of the plate with the aid of a rubber policeman in 5 ml of 50 mM Tris-HCI buffer pH 7.4 at 4° C. and the suspension homogenized for 10 s. The suspension was then centrifuged at 27,000×g for 10 min. The pellet was resuspended in homogenization buffer by vortexing and centrifuged as described above. The final pellet was resuspended in 1 vol of 50 mM Tris-HCI buffer pH 7.4 containing 5 mM MgCl2 for A1 AdoR assays. For the [^35S]GTPγS binding assay the final pellet was resuspended in 50 mM Tris-HCI pH 7.4 containing 5 mM MgCl2, 100 mM NaCl and 1 mM dithiothreitol. This membrane suspension was then placed in liquid nitrogen for 10 min, thawed and used for assays.
Competitive Binding Assay Pig striatum were prepared by homogenation in 50 mM Tris buffer (5× volume of tissue mass pH=7.4). After centrifilgation at 19,000 rpm for 25 minutes at 4° C., the supernatant was discarded, and the process was repeated twice. Compositions of this invention were assayed to determine their affinity for the A1 receptor in a pig striatum membrane prep or a DDT, membrane prep. Briefly, 0.2 mg of pig striatal membranes or DDT, cell membranes were treated with adenosine deaminase and 50 mM Tris buffer (pH=7.4) followed by mixing. To the pig membranes was added 2 μL of serially diluted DMSO stock solution of the compounds of this invention at concentrations ranging from 100 microM to 10 nM. The control received 2 microL of DMSO alone, then the antagonist [^3H] 8-cyclopentylxanthine (CPX) for pig striatum or the agonist [^3H] 2-chloro-6-cyclopentyladenosine (CCPA) for DDT, membranes in Tris buffer (50 mnM, pH of 7.4) was added to achieve a final concentration of 2 nM. After incubation at 23 C for 2 h, the solutions were filtered using a membrane harvester using multiple washing of the membranes (3×). The filter disks were counted in scintillation cocktail affording the amount of displacement of triated CPX or by the competitive binding compositions of this invention. In the case of the DDT1 cell membranes, some of the determinations of binding affinity (Ki) were made in the presence of Gpp(NH)p as noted in Table 1 (note: Gpp(NH)p shifts the receptor to a low affinity form). Greater than a 5 point curve was used to generate Ki's and the number of experiments is indicated in the column marked in Table 1 below.

The target in experiment [2] is T2, A1 adenosine receptor (Mesocricetus auratus, UniProt A0A1U8BVR4).
T2 construct: endogenous in cells; host or cells: DDT1 (DDT1 MF-2) hamster vas deferens smooth muscle cells
T2 sequence (A0A1U8BVR4 1-326): T1 sequence (A0A1U8BVR4 1-326)
Nature of the experiment: [35S]GTPγS binding assay, A1-agonist stimulated. The format is biochemical, hamster. The following applies: agonist stimulated [35S]GTPγS binding, CPA = 100%. As for the experimental part:
as §1, with “for assays. The protein content was determined by the method of Bradford (1976) using bovine serum albumin as standard.” for “for assays.”
A1-agonist stimulated [^35S]GTPγS binding was determined by a modification of the method described by Giersckik et al. (1991) and Lorenzen et al. (1993). […] Nonspecific binding was determined by the addition of 10 μM GTPγS. […] Previous reports have shown that agonist stimulated [^35S]GTPγS binding was dependent on the presence of GDP (Gierschik et al., 1991; Lorenzen et al., 1993; Traynor & Nahorski, 1995). […] In saturation experiments, 0.5 nM [^35S]GTPγS was incubated with 0.5-1000 nM GTPγS. At the end of the incubation, each suspension was filtered and the retained radioactivity determined as described above.
Background: Binding of GTPγS marks nucleotide exchange on a G protein.

[3] abbreviates: DDT1 cell membranes, read-out: Ki-DDT1 cell membrane.
Where [4] appears, read: in presence of Gpp(NH)p (low affinity form), read-out: Ki - DDT1 cell membrane In presence of Gpp (NH)p.

Molecules are shown by their SMILES. Like-named read-outs stand apart in the source and are kept apart here.

This is an account of results in US20020037872A1, “N6 heterocyclic 5' modified adenosine derivatives” (CV Therapeutics, Inc., priority 1999, published 2002).

The Ki is the equilibrium dissociation constant of an inhibitor or competing ligand from its target. In general, Emax refers to the maximal effect, on the per cent scale that the assay sets.

Consider `O=C(NC[C@H]1O[C@@H](n2cnc3c(N[C@@H]4CCOC4)ncnc32)[C@H](O)[C@@H]1O)NC1CCCC1` [Compound 76, N-[(5-{6[((3R)oxolan-3yl)amino]purin-9-yl}(3S,2R,4R,5R)3,4-dihydroxyoxolan-2-yl)methyl](cyclopentylamino)carboxamide], for which, in experiment [1] (setting [3]), the Ki was determined as 11.6 µM.
On to `CN(C)C(=O)OC[C@H]1O[C@@H](n2cnc3c(N[C@@H]4CCOC4)ncnc32)[C@H](O)[C@@H]1O` [Compound 44, {(5-{6-[((3R)oxolan-3-yl)amino]purin-9-yl}(3S,2R,4R,5R)-3,4-dihydroxyoxolan-2-yl)methoxy]-N,N-dimethylcarboxamide], for which the Ki in experiment [1] (setting [4]) is 1.84 µM.
For `O=C(NC1CC1)OCC1OC(n2cnc3c(N[C@@H]4CCOC4)ncnc32)C(O)C1O` (some centres unmarked) [Compound 33], the Ki in experiment [1] (setting [4]) was 1.71 µM.
Consider `O=C(NC1CCCCC1)OC[C@H]1O[C@@H](n2cnc3c(N[C@@H]4CCOC4)ncnc32)[C@H](O)[C@@H]1O` [Compound 31, {(5-{6-[((3R)oxolan-3-yl)amino]purin-9-yl}(3S,2R,4R,5R)3,4-dihydroxyoxolan-2-yl)methoxy]-N-cyclohexylcarboxamide], for which the Ki in experiment [1] (setting [4]) stood at 1.09 µM.
For the molecule `OC1C(COC(=S)NCc2ccccc2)OC(n2cnc3c(N[C@@H]4CCOC4)ncnc32)C1O` (some centres unmarked) [Compound 54], the Ki in experiment [1] (setting [4]) came out at 0.229 µM. The Emax in experiment [2] amounted to 93%.
As for `O=C(NCc1ccc(F)cc1)OCC1OC(n2cnc3c(N[C@@H]4CCOC4)ncnc32)C(O)C1O` (some centres unmarked) [Compound 30], the Ki came out at 2.21 µM in experiment [1] (setting [3]) and 1.73 µM in experiment [1] (setting [4]).
For `OC1C(CNC(=S)NC2CCCC2)OC(n2cnc3c(NC4CCOC4)ncnc32)C1O` [Compound 78, 2-{6-[((3R)oxolan-3-yl)amino]purin-9-yl}(4S,2R,3R,5R)-5-({[(cyclopentylamnino)thioxomethyl]amino}methyl)oxolane3,4diol], the Ki in experiment [1] (setting [3]) worked out at 0.357 µM. In addition, in experiment [2], the Emax is 95%.
For `CCCCNC(=O)OCC1OC(n2cnc3c(N[C@@H]4CCOC4)ncnc32)C(O)C1O` (some centres unmarked) [Compound 27], the results for the Ki in experiment [1] (setting [3]) and in experiment [1] (setting [4]) were 1.61 µM and 0.111 µM, respectively. Besides, the maximal effect (Emax) in experiment [2] came to 44%.
In the case of `CCCNC(=O)OCC1OC(n2cnc3c(N[C@@H]4CCOC4)ncnc32)C(O)C1O` (some centres unmarked) [Compound 26], the Ki in experiment [1] (setting [4]) turned out to be 0.513 µM. Also, in experiment [2], the maximal response (Emax) came out at 73%.
Consider `C=CCNC(=S)OCC1OC(n2cnc3c(N[C@@H]4CCOC4)ncnc32)C(O)C1O` (stereo partly drawn) [Compound 60, 2-{6-[((3R)oxolan-3-yl)amino]purin-9-yl}(4S,2R,3R,5R)-5-{[(prop-2-enylaminio)thioxomethoxy]methyl}oxolane3,4diol], for which the inhibition constant (Ki) in experiment [1] (setting [4]) turned out to be 0.239 µM. The molecule further yielded a maximal effect (Emax) in experiment [2] of 77%.
With `CCNC(=O)NCC1OC(n2cnc3c(NC4CCOC4)ncnc32)C(O)C1O` [Compound 79, N-[(5-{16[((3R)oxolan-3-yl)amino]purin-9-yI}(3S,2R,4R,5R3,4-dihydroxyoxolan-2-yl)methyl](ethylamino)carboxamide], in experiment [1] (setting [4]), the Ki was determined as 0.167 µM.
`CC(C)NC(=S)OC[C@H]1O[C@@H](n2cnc3c(N[C@@H]4CCOC4)ncnc32)[C@H](O)[C@@H]1O` [Compound 47, 2-{6-[((3R)oxolan-3-yl)amino]purin-9-yl}(4S,2R,3R,5R)-5({[(methylethyl)amino]thioxomethoxy}methyl)oxolane3,4-diol]: the Ki in experiment [1] (setting [4]) was determined as 0.109 µM. This molecule also came in with an Emax in experiment [2] of 84%.
Regarding `CCNC(=O)OC[C@H]1O[C@@H](n2cnc3c(N[C@@H]4CCOC4)ncnc32)[C@H](O)[C@@H]1O` [Compound 25, [(5-{6-[((3R)oxolan-3-yl)amino]purin-9-yl}(3S,2R,4R,5R)-3,4-dihydroxyoxolan-2-yl)methoxy]-N-ethylcarboxamide], in experiment [1] (setting [4]), the Ki was 0.727 µM.
On to `CCNC(=S)OC[C@H]1O[C@@H](n2cnc3c(N[C@@H]4CCOC4)ncnc32)[C@H](O)[C@@H]1O` [Compound 46, 2-{6[((3R)oxolan-3-yl)amino]purin-9-yl}(4S,2R,3R,5R)-5-{[(ethylamino)thioxomethoxy]methyl}oxolane3,4diol], for which, in experiment [1] (setting [4]), the Ki came to 0.135 µM. In experiment [2], the Emax was 77%.
Turning to `O=C(O)CCNC(=O)OCC1OC(n2cnc3c(N[C@@H]4CCOC4)ncnc32)C(O)C1O` (some centres unmarked) [Compound 67], the Ki in experiment [1] (setting [3]) worked out at 2.22 µM. Besides, the Emax in experiment [2] was determined as 59%.
Take `O=C(O)CNC(=O)OC[C@H]1O[C@@H](n2cnc3c(N[C@@H]4CCOC4)ncnc32)[C@H](O)[C@@H]1O` [Compound 68, 2-{[(5-{6-[((3R)oxolan-3-yl)amino]purin-9-yl}(3S,2R,4R,5R)-3,4-dihydroxyoxolan-2-yl)methoxy]carbonylamino}acetic acid]: the Emax in experiment [2] was 76%.
For the molecule `CNC(=S)NC[C@H]1O[C@@H](n2cnc3c(N[C@@H]4CCOC4)ncnc32)[C@H](O)[C@@H]1O` [Compound 77, 2-{6[((3R)oxolan-3-yl)amino]purin-9-yl}(4S,2R,3R,5R)5-({[(methylamino)thioxomethyl]amino}methyl)oxolane-3,4diol], the Ki in experiment [1] (setting [3]) is 0.113 µM. Also, the Emax in experiment [2] came out at 101%.
For `O=C(NC1CCCC1)OCC1OC(n2cnc3c(N[C@@H]4CCOC4)ncnc32)C(O)C1O` (some centres unmarked) [Compound 28], the Ki in experiment [1] (setting [3]) amounted to 0.032 µM; in experiment [1] (setting [4]), 0.808 µM.
Regarding `CCCCNC(=S)OCC1OC(n2cnc3c(N[C@@H]4CCOC4)ncnc32)C(O)C1O` (some centres unmarked) [Compound 48], in experiment [1] (setting [4]), the Ki worked out at 0.926 µM. Moreover, the Emax in experiment [2] turned out to be 70%.
`O[C@@H]1[C@H](O)[C@@H](COC(=S)N2CCCC2)O[C@H]1n1cnc2c(N[C@@H]3CCOC3)ncnc21` [Compound 52]: in experiment [1] (setting [4]), the Ki worked out at 1.12 µM. Further, in experiment [2], the GTPγS amounted to 77%.
For the molecule `O[C@@H]1[C@H](O)[C@@H](CSC(=S)NC2CCCC2)O[C@H]1n1cnc2c(N[C@@H]3CCOC3)ncnc21` [Compound 75, 2-{6-[((3R)oxolan-3-yl)amino]purin-9-yl}(4S,5S,2R,3R)-5-{[(cyclopentylamino)thioxomethylthio]methyl}oxolane-3,4-diol], the Ki in experiment [1] (setting [3]) came to 0.062 µM. In addition, in experiment [2], the Emax was determined as 91%.
As to `O=C(NCc1ccccc1)OC[C@H]1O[C@@H](n2cnc3c(N[C@@H]4CCOC4)ncnc32)[C@H](O)[C@@H]1O` [Compound 29, [(5-{6-[((3R)oxolan-3-yl)amino]purin-9-yl}(3S,2R,4R,5R)-3,4dihydroxyoxolan-2-yl)methoxy]-N-benzylcarboxamide], the Ki in experiment [1] (setting [4]) came out at 0.478 µM.
As to `O[C@@H]1[C@H](O)[C@@H](COC(=S)NC2CCCC2)O[C@H]1n1cnc2c(N[C@@H]3CCOC3)ncnc21` [Compound 51, 2-{6-[((3R)oxolan-3-yl)amino]purin-9-yl}(4S,2R,3R,5R)-5{[(cyclopentylamino)thioxomethoxy]methyl}oxolane3,4-diol], in experiment [1] (setting [4]), the Ki is 0.087 µM.
